Structures are written as SMILES.

For orientation: IC50 means the concentration needed to halve the response being measured. Read a low IC50 as greater potency in that assay.

The target of this test is T1, Group 3 secretory phospholipase A2 (Homo sapiens, UniProt Q9NZ20).
T1 sequence (Q9NZ20 whole entry): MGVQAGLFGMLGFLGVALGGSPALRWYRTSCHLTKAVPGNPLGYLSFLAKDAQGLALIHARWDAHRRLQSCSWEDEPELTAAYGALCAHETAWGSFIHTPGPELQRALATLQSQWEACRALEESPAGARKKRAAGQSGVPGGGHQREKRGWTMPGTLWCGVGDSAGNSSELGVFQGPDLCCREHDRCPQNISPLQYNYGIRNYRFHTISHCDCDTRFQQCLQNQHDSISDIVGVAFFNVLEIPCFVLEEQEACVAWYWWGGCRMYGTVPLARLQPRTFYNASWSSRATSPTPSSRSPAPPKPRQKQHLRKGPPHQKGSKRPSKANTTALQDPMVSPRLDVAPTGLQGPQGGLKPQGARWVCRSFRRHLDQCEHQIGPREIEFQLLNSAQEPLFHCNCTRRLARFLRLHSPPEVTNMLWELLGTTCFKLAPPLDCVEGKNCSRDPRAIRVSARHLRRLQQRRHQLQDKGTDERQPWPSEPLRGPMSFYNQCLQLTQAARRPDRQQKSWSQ
The test is described as follows: human group III sPLA2 inhibitors, dose response, biochemical, QFRET, IC50 (AID 743457).
On to `CSCc1nc2sc(C(=O)Nc3nc(C)cs3)c(C)c2c(=O)[nH]1` [5-methyl-2-(methylsulfanylmethyl)-N-(4-methyl-1,3-thiazol-2-yl)-4-oxo-3H-thieno[2,3-d]pyrimidine-6-carboxamide], for which the IC50 amounted to 122 µM. For the molecule `Cc1ccc(C(=O)n2c3ccccc3c3ccccc32)cc1` [carbazol-9-yl-(4-methylphenyl)methanone], half-maximal inhibition (IC50) required 30.3 µM. For `Cc1ccc(C(=O)Nc2nc(C(C)(C)C)cs2)s1` [N-(4-tert-butyl-2-thiazolyl)-5-methyl-2-thiophenecarboxamide] the value was 122 µM. As for `Cc1c(Cl)cccc1N=C(S)NCCc1ccc(S(N)(=O)=O)cc1`, the IC50 stood at 122 µM. For `COc1cc(/C=C(/C#N)c2nc3ccccc3[nH]2)ccc1OCc1ccc(C(=O)O)o1` [5-[[4-[(Z)-2-(1H-benzimidazol-2-yl)-2-cyanoethenyl]-2-methoxyphenoxy]methyl]-2-furancarboxylic acid] the value was 66.3 µM; for `COc1ccc(C=NNC(=O)CSc2n[nH]c(=O)[nH]c2=O)cc1` [2-[[3,5-bis(oxidanylidene)-2H-1,2,4-triazin-6-yl]sulfanyl]-N-[(4-methoxyphenyl)methylideneamino]ethanamide], 48 µM. For `Cc1ccc(O)c(-c2cc(C(=O)Nc3ccc(S(=O)(=O)Nc4nccc(C)n4)cc3)[nH]n2)c1` [5-(2-Hydroxy-5-methyl-phenyl)-2H-pyrazole-3-carboxylic acid [4-(4-methyl-pyrimidin-2-ylsulfamoyl)-phenyl]-amide] the value was 122 µM; for `Cc1n[nH]c(N=Nc2ccc(O)cc2)n1` [4-[(5-methyl-1H-1,2,4-triazol-3-yl)hydrazinylidene]cyclohexa-2,5-dien-1-one], 20.5 µM; for `O=C1c2ccccc2SC1/C=N/c1cc([N+](=O)[O-])ccc1O` (stereo not drawn) [(2Z)-2-[[(5-nitro-2-oxidanyl-phenyl)amino]methylidene]-1-benzothiophen-3-one], 122 µM. For `Cc1noc(/C=C/N(C)C)c1S(=O)(=O)N1CCCC(C(=O)NCc2ccco2)C1` (stereo not drawn) the value was 122 µM; for `CCCCn1c(NS(=O)(=O)c2ccccc2)c(C(=O)OCC)c2nc3ccccc3nc21` [MLS000589117], 40.6 µM; for `CCN(CC)c1nc2c3c(nc4c(c3c1C#N)CC(=O)N4c1ccc(Cl)cc1)NC(C)=N2` [MLS000389664], 25 µM.

On to `COC(=O)CCC(=O)OC1(C)C(=O)C2=CN(CCCOC(C)C)C(c3ccc(OC)cc3)=CC2=C(Br)C1=O` (stereo not drawn) [4-O-[5-bromo-3-(4-methoxyphenyl)-7-methyl-6,8-dioxo-2-(3-propan-2-yloxypropyl)isoquinolin-7-yl] 1-O-methyl butanedioate], for which the IC50 is 122 µM. This IC50 is about 4.9-fold higher than that of the molecule before. In turn, `Cc1ccc(-n2ncc3c(NNC(=O)c4ccco4)ncnc32)cc1C` [MLS001235991] gave an IC50 of 122 µM.

Regarding `O=C1C([N+](=O)[O-])=CC(Cl)=CC1/C=N/NC(=O)C(O)(c1ccccc1)c1ccccc1` (stereo not drawn) [N''''-[(E)-(3-chloro-5-nitro-6-oxocyclohexa-2,4-dien-1-ylidene)methyl]-2-hydroxy-2,2-diphenylacetohydrazide], 32.5 µM corresponded to half-maximal inhibition (IC50). Next, `NS(=O)(=O)c1ccc(Nc2nc3ccccc3nc2NS(=O)(=O)c2cccc([N+](=O)[O-])c2)cc1`: 42.5 µM; `COCCN1C(=O)/C(=C/c2c(OC)cc(OC)cc2OC)C(=O)N(c2ccccc2)C1=O`: 100 µM. For `C=CCSC(N)=NN=CC1C=C(Br)C=C([N+](=O)[O-])C1=O` (stereo not drawn) [N''-[[(E)-(3-bromo-5-nitro-6-oxo-1-cyclohexa-2,4-dienylidene)methyl]amino]carbamimidothioic acid prop-2-enyl ester] the value was 40.6 µM.

Values taken from BindingDB's records for doi:10.7270/Q2CV4GCW (The Scripps Research Institute Molecular Screening Center, 2014).
